Test results taken from publication PMC9598656, “In Vitro Activity of Robenidine Analogues NCL259 and NCL265 against Gram-Negative Pathogens” (Antibiotics, 2022).

Assays:
[1] = test system: Wild-type (E. coli BW 25113); assay: MIC, efflux-pump wild-type; format: cell-based; conditions: Escherichia coli; Wild-type (E. coli BW 25113); read-out: MIC Values
Protocol: (§1) A variety of Gram-negative reference strains (E. coli ATCC 25922, E. coli ATCC 10763, P. aeruginosa PAO1, P. aeruginosa ATCC 27853, A. baumannii ATCC 12457, A. baumannii ATCC 19606, K. pneumoniae ATCC 4352 and K. pneumoniae ATCC 33495) were used for initial screening and combination testing with PMB. The organisms were speciated using biochemical testing and MALDI-TOF mass spectrometry (Bruker, Preston, VIC, Australia). Activity testing of NCL259 and NCL265 was also carried out on 51 extraintestinal clinical E. coli isolates from companion animals, and 83 porcine and bovine enterotoxigenic E. coli (ETEC) isolates from the Australian Centre for Antimicrobial Resistance Ecology collection. E. coli wild-type (BW 25113) and its mutant BW 25113∆AcrB, in which the inner membrane component AcrB of the tripartite multidrug efflux system AcrA/AcrB/TolC has been deleted, were obtained from the bacterial collection held at Health and Biomedical Innovation, Clinical and Health Sciences, The University of South Australia. All isolates were cultured on sheep blood agar (SBA) plates at 37 °C for 18 h before being subcultured into Luria Bertaini (LB) (Oxoid, Scoresby, VIC, Australia) broth and grown to A600nm = 0.5 (equivalent to approx. 1.5 × 10^8 colony-forming units (CFU)/mL).
MICs for NCL259 and NCL265 (serial two-fold dilutions commencing at 256 µg/mL) were determined (in duplicate) in round bottom 96–well microtitre trays (Sarstedt 82.1582.001), using the broth micro-dilution method recommended by the Clinical and Laboratory Standards Institute (CLSI). We have shown previously that robenidine can chelate calcium ions from cation-adjusted Mueller-Hinton broth, which causes the loss of activity of robenidine. Therefore, LB broth was used in this study. […] The MIC for ampicillin against each isolate was determined for each test to serve as an internal quality control. The MICs of isolates were determined by visual reading and using an EnSpire Multimode Plate Reader 2300 at A600nm.

E. coli BW 25113 (∆AcrB) = assay: MIC, efflux-pump mutant; format: cell-based, Escherichia coli; conditions: Escherichia coli, read-out: MIC Values
Protocol: as §1
MICs for NCL259 and NCL265 (serial two-fold dilutions commencing at 256 µg/mL) were determined (in duplicate) in round bottom 96–well microtitre trays (Sarstedt 82.1582.001), using the broth micro-dilution method recommended by the Clinical and Laboratory Standards Institute (CLSI). We have shown previously that robenidine can chelate calcium ions from cation-adjusted Mueller-Hinton broth, which causes the loss of activity of robenidine. Therefore, LB broth was used in this study. Additionally, considering the low solubility of robenidine and its analogues in aqueous solutions, two-fold serial dilutions of stock solutions of these compounds were prepared in 100% DMSO [21]. The MIC for ampicillin against each isolate was determined for each test to serve as an internal quality control. The MICs of isolates were determined by visual reading and using an EnSpire Multimode Plate Reader 2300 at A600nm.

Compound `CC[C@H]1OC(=O)[C@H](C)[C@@H](O[C@H]2C[C@@](C)(OC)[C@@H](O)[C@H](C)O2)[C@H](C)[C@@H](O[C@@H]2O[C@H](C)C[C@H](N(C)C)[C@H]2O)[C@](C)(O)C[C@@H](C)C(=O)[C@H](C)[C@@H](O)[C@]1(C)O` [Erythromycin, reference compound] has an MIC [1] greater than 128 µg/mL and an MIC (E. coli BW 25113 (∆AcrB)) of 2 µg/mL.
